Source: article PMC7894860, “Molecular dynamics investigation of the interaction between Colletotrichum capsici cutinase and berberine suggested a mechanism for reduced enzyme activity” (PLoS ONE, 2021)

Assays:
[1] = target: T1, cutinase from Colletotrichum capsici (Colletotrichum truncatum, UniProt P10951); experiment: turbidimetric ester hydrolysis assay (OD630); assay type: biochemical; conditions: read-out: relative activity at 500 μg/ml berberine
T1 construct: gene CUTA; purchased recombinant protein
T1 sequence (P10951 17-228): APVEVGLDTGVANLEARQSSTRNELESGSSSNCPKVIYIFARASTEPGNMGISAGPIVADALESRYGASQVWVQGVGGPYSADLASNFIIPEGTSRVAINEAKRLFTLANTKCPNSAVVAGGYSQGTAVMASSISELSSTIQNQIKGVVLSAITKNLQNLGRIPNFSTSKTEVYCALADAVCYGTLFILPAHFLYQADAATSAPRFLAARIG

[2] = target: T1, cutinase from Colletotrichum capsici; experiment: turbidimetric hydrolysis assay (OD630); assay type: biochemical; conditions: 30°C; substrate emulsion in 25 mM potassium phosphate pH 8.0, 0.5% gum arabic

| SMILES | activity at 500 µg/mL [1] [%] | turbidimetric hydrolysis assay (OD630) [2] |
| --- | --- | --- |
| COc1ccc2cc3[n+](cc2c1OC)CCc1cc2c(cc1-3)OCO2 [berberine] | 78 |  |
| CCCC(=O)OCC(COC(=O)CCC)OC(=O)CCC [Tributyrin] |  | For short chain substrate tributyrin, berberine conferred slight decrease of relative activity |
| CCCCCCCC(=O)OCC(COC(=O)CCCCCCC)OC(=O)CCCCCCC [Glyceryl trioctanoate] |  | larger reduced enzyme activities for longer chain substrates glyceryl trioctanoate and isopropyl myristate |
